Where two headings read alike, the source gives them in different places.

For one data set, the system named is ascites lymphoma cells. Put plainly: Preliminary rapid test: antitumor effect. The data set is classed as in vivo, CFLP male mice. As to conditions: oral, one-tenth of LD50; 24 hours.
Data set [1] relates to neutrophilic granulocytes, lymphocytes and macrophages. Put plainly: Preliminary rapid test: immunostimulant effect. The data set is classed as in vivo, CFLP male mice. Details: key: 0: if there is no difference in the number and activity of the said cells, no increase can be declared over the control; medium: Medium effect is observed if the increase of cell number or activity over the control amounts to 20%; The effect is strong if the increase of the cell number and activity of the immune system is more than 20% higher than the control. As to conditions: oral, one-tenth of LD50; 24 hours.

Data set [2] has as its system neutrophylic granulocytes and limphocytes. As to conditions: mouse, in vivo, po.
Data set [3] relates to human polymorphonuclear leucocytes. Put plainly: Direct /random/ migration of human polymorphonuclear leucocytes on agarose microdrops. Type of data set: cell-based. As to conditions: for Effect on migration at a higher dose: 10 μg/ml; for Direct (random) migration of polymorphonuclear cells / Optimal dose for increase of migration: healthy donors. As for the experimental part: Spontaneous (random) migration of leukocytes was measured on agarose microdrops according to the method of McCoy et al (1977) by carrying out some minor modifications (Kalmar and Gergely, 1982).
[…] agarose drops (0.2%) were placed on migration plates (Greiner, German Federal Republic). TC 199 liquid nutrient medium was added and the plates were air-tightly closed. After 24 hours the migration area were measured under a stereomicroscope. The migration area were expressed in mm^2.

Data set [4] concerns P-388 mouse lymphoma cells. Put plainly: In vitro antitumor effect, P-388. The data set is classed as cell-based. As to conditions: 400 μg/ml.
The next data set has as its system NK-ly-ascites lymphoma. Put plainly: NK-ly-ascites lymphoma in vivo. Details: species or system CFLP male mice. The following applies: for Activity against NK-ly-ascites tumor: concentration below one-tenth of the LD50 value; for Survival rate and lifetime: dose-dependant; for Cytotoxical dose range: mouse, in vivo.
Data set [5] concerns human bone metastasis of mammal tumors, ovary tumors and pancreas tumors. Put plainly: Human tumors, oral treatment for 6-12 months. The data set is classed as in vivo. The following applies: oral daily dose 30-120 mg (0.5-2 mg/kg).
In the next data set the test system is NK-yl ascites tumor. Put plainly: Combinations with known cytostatic agents in NK-ly ascites tumor. The data set is classed as in vivo, CFLP mice. The following applies: with cyclophosphamide, carnomustine, degranol, dibromo dulcitol or dibromo mannitol.
A further data set concerns tumor cells. Put plainly: Testing of antitumor effect (overall).
Another data set relates to human lymphocytes. Put plainly: Immunological tests (overall; NK and K cell activity). Type of data set: cell-based. As for the experimental part: Lymphocytes were separated on Ficoll-Uromiro (Boyum 1968) gradient from the venal blood of healthy donors and patients suffering from malignant lymphoma and metastatizing solid tumours, respectively. When selecting the patients belonging to the latter group, the decreased ADCC and NK activity was taken into consideration. The phagocytes were removed by treatment with iron powder and a magnet.
ADCC was determined according to the method of Perlmann and Perlmann (1970) with minor modifications (Lang et al, 1981). Chicken erythrocytes labelled with 10^5 51 Cr and coated with anti-chicken erythrocyte rabbit-serum were incubated with the lymphocytes for 4 hours at 37° C. The reaction having been stopped the activity of the supernatant of the centrifuged cells was determined in a gamma-counter. The rate of chrome-release was expressed as the cytotoxicity index (CI %). This value was calculated as described in one of our earlier publications (Lang et al., 1980)--(see Table I).
NK activity was determined by the method of Jondal and Pross (1975) by using minor modifications (Lang et al, 1981). K-562 tumor cells labelled by ^51 Cr were incubated with effector cells in a TC 199 liquid nutrient medium comprising 10% of decomplemented calf serum. The reaction having been stopped the radioactivity of the superntant of the centrifuged cells (chrome release) was counted in a gamma-counter. The killing of the tumor cells (cytotoxicity index %) was expressed as the difference of the test release and spontaneous release.
Statistical calculations were carried out by means of a mono-sample test. […] The said effect may be so strong that cytotoxic activity decreased to one-tenth of the original value may be restored to the oroginal level (Table II).

Data set [6] has as its system hemodinamical parameters and respiration function of cats.
For data set [7] the following is noted: in vivo, 24 h.
The subject of the next data set is ticks (Ixodes ricinus). Put plainly: Anti-parasital effect in dogs infected by ticks. Type of data set: in vivo. The following applies: oral 1-2 mg/kg; six-eight hours after administration. As for the experimental part:
Compounds of the Formula I were added orally to dogs infected by ticks (Ixodes ricinus) for three days. Thus N-aminoiminomethyl-S-allyl-isothiuronium hydrochloride was administered in an oral dose of 1-2 mg/kg and the killing rate of ticks was registered.

The next data set relates to heart muscle. Put plainly: Cardioprotective effect in isoprenaline necrosis. As to conditions: 1-5 mg/kg i.p. or 10-50 mg/kg p.o.; isoproterenol 5 mg/kg i.p.; two weeks. Type of data set: in vivo, male CFY rats. As for the experimental part: 5 mg/kg of isoproterenol are i.p. administered to male CFY rats (weight 250-300 g). In each group 10 animals were used. One part of the animals served as control and the other were treated with a 1-5 mg/kg i.p. or 10-50 mg/kg p.o. dose of compound No. 14. After two weeks the hearts were subjected to hystological evaluation. The ratio of necrotized and intact area of heart muscle were determined.

By LD50 is commonly meant the dose at which mortality reaches 50%. Consider `N=C(N)NC(=N)SCc1ccccc1` [Example 18, N-Aminoiminomethyl-S-Benzyl-Thiuronium Chloride], for which the Antitumor effect entry in the data set with ascites lymphoma cells is on record as “increase”. The molecule further yielded an Immunostimulant effect in data set [1] of 0. In data set [2], this molecule gave a Toxic effect of 0. Moreover, the median lethal dose (LD50) at 24 h in “in vivo” (po) came out at 2420 ± 260 mg/kg.

`C=CCSC(=N)NC(=N)N` [Example 11, N-Aminoiminomethyl-S-Allyl-Isothiuronium Bromide]: in data set [3], the “Effect on migration at a higher dose” value was “less expressed”, the “Direct (random) migration of polymorphonuclear cells” value is on record as “increased” and the “Optimal dose for increase of migration” value came out at 1.0 µg/mL. Moreover, the Immunostimulant effect result in [1] was “strong (The effect is strong if the increase of the cell number and activity of the immune system is more than 20% higher than the control)”. Also, the “Activity on P-388 cells on increasing the concentration” value in data set [4] was “the activity does not become stronger”. Moreover, in the data set on NK-ly-ascites lymphoma, the “Activity against NK-ly-ascites tumor” value is “active agains Nk-ly-ascites tumor in a concentration below one-tenth of the LD50 value”; the “Survival rate and lifetime” value is “increase survival rate and lifetime in a dose-dependant manner”; the Cytotoxical dose range fell in the range of 250 to 500 mg/kg. Further, the “Clinical outcome in human tumors” value in data set [5] is on record as “significant improvement or reconvalescence”. For the same molecule, in the data set on NK-yl ascites tumor, the “Antitumor effect of combination vs cytostatic agent alone” value was “the antitumor effect was strengthened” and the “Immunodepression of combination vs cytostatic agent alone” value is “immunodepression decreased”. Besides, the Antitumor effect entry in the data set on tumor cells is recorded as “outstanding antitumor effect”. For the same molecule, in the data set with human lymphocytes, the Immunostimulant effect entry is given as “outstanding immunostimulant effect”; the “Increase of normal and strongly decreased NK and K cell activity” value was “significant increase of normal and strongly decreased NK and K cell activity, even above the normal level”. In data set [2], this molecule had a Toxic effect of 0. In data set [6] (10 mg/kg i.v., opened and closed chest), the “Hemodinamical parameters and respiration function” value is “does not considerably effect the hemodinamical parameters and respiration function”. The “Left ventricular pressure and frequency effects” value in data set [6] (50 mg/kg i.v.) was “significant and long-lasting”. Moreover, the Hemodynamical changes result in [6] (100 mg/kg i.v.) is “strong hemodynamical changes were observed”. Also, the “Left ventricular pressure and frequency” value in [6] (above 10 mg/kg i.v.) is given as “decreased”. Moreover, the Lethality entry in data set [6] (in vivo) was “the cats did not perish”. In addition, in “in vivo” (ip), the LD50 at 24 h stood at 320 ± 30 mg/kg. The same molecule came in with an LD50 at 24 h in the data set “in vivo” (po) of 2380 ± 320 mg/kg.

For the molecule “N-Aminoiminomethyl-S-(1-Chloro-2-Hydroxy-Propyl)-Isothiuronium Bromide [Example 14]”, in data set [3], the “Effect on migration at a higher dose” value was “less expressed”, the “Direct (random) migration of polymorphonuclear cells” value is on record as “increased” and the “Optimal dose for increase of migration” value is 1.0 µg/mL. Besides, the Immunostimulant effect entry in data set [1] is on record as “weak”. In the data set with NK-ly-ascites lymphoma, the “Activity against NK-ly-ascites tumor” value is reported as “active agains Nk-ly-ascites tumor in a concentration below one-tenth of the LD50 value”; the “Survival rate and lifetime” value is “increase survival rate and lifetime in a dose-dependant manner”. For the same molecule, in the data set with NK-yl ascites tumor, the “Antitumor effect of combination vs cytostatic agent alone” value is recorded as “the antitumor effect was strengthened” and the “Immunodepression of combination vs cytostatic agent alone” value is given as “immunodepression decreased”. Moreover, the Antitumor effect result in the data set with tumor cells is “outstanding antitumor effect”. In [7], the “LD50” value is listed as 2380 mg/kg. Moreover, the LD50 in data set [7] (po) is on record as 1240 ± 160 mg/kg.

Turning to `N=C(N)NC(=N)SCCO` [Example 16, N-Aminoiminomethyl-S-(2-Hydroxyethyl)-Isothiuronium Chloride], the Immunostimulant effect result in [1] is “strong (The effect is strong if the increase of the cell number and activity of the immune system is more than 20% higher than the control)”; in the data set with human lymphocytes, “outstanding immunostimulant effect”. Moreover, the “Antitumor effect of combination vs cytostatic agent alone” value in the data set with NK-yl ascites tumor was “the antitumor effect was strengthened”. Besides, the “Immunodepression of combination vs cytostatic agent alone” value in the data set on NK-yl ascites tumor is on record as “immunodepression decreased”. Further, the “Increase of normal and strongly decreased NK and K cell activity” value in the data set with human lymphocytes was “significant increase of normal and strongly decreased NK and K cell activity, even above the normal level”. In data set [2], this molecule gave a Toxic effect of 0. The LD50 at 24 h in the data set “in vivo” (ip) was 1680 ± 210 mg/kg; in “in vivo” (po), 3280 ± 460 mg/kg.

Turning to `C=CCSC(=NC1CCCCC1)NC(=N)N` [Example 22, N-Aminoiminomethyl-N'-Cyclohexyl-S-Allyl-Isothiuronium Chloride], the Immunostimulant effect entry in data set [1] was “weak”. For the same molecule, the “Activity against NK-ly-ascites tumor” value with NK-ly-ascites lymphoma was “active agains Nk-ly-ascites tumor in a concentration below one-tenth of the LD50 value”. The “Survival rate and lifetime” value in the data set with NK-ly-ascites lymphoma was “increase survival rate and lifetime in a dose-dependant manner”. The molecule further returned a Cytotoxical dose range with NK-ly-ascites lymphoma of 40 to 160 mg/kg. Further, the LD50 in data set [7] (ip) is 40 ± 6 mg/kg; in data set [7] (po), 400 ± 38 mg/kg. The same molecule came in with a Toxic effect in [2] of 0. For the same molecule, the values for the LD50 at 24 h in the data set “in vivo” (ip) and in “in vivo” (po) were 65 ± 5.1 mg/kg and 450 ± 51 mg/kg, respectively.

`C=CCSC(=N)NC(=N)N` [Example 12, N-Aminoiminomethyl-S-Allyl-Isothiuronium Chloride]: the “Killing rate of ticks” value in the data set on ticks (Ixodes ricinus) is given as “all ticks were killed”. The “Necrosis of heart muscle” value in the data set on heart muscle is listed as “significant decrease of necrosis”.

Source of the values: patent US4710578A, “Isothiuronium salts” (Peremartoni Vegyipari Vallalat, priority 1984, dated 1987).
